# “And” between values parts separate entries of the source, which are not always exact repeats. Equal values may be shown once.
# How the values were obtained:
# [1] = system: Anopheles farauti antennae; experiment: Electroantennogram (EAG), non bloodfed females; conditions: chemicals at 1/10 concentrations
# Experimental: (§1) In order to assess Y-tube olfactometry experiments and field trials using an independent technique and to investigate the physiological basis of the observed activation and attraction behaviour, electroanntennogram (EAG) and electropalpogram (EPG) studies were performed on A. stephensi female mosquitoes. EAG studies were also performed on Anopheles farauti, Culex annulirostris and Aedes aegypti female mosquitoes.
# (§2) Five to eight days Anopheles stephensi, two to fourteen days old Culex annulirostris and Aedes aegypti as well as four days old Anopheles faraulti non-blooded females, fed on 10% sucrose ad-libitum and then starved for >12 hours, were used. Mosquito head was excised and placed on the reference electrode coated with electrode gel (Parker Laboratories, Orange, N.J.). The distal end of the antennae or palp (<0.5 mm), cut to ensure a good electrical contact, were carefully placed on the recording electrode (Syntech, Germany). Signals were fed to a 10× amplifier and processed with IDAC 4 and PC-based interface and EAG software package (Syntech, Germany).
# (§3) Thus 1-octen-3-ol was used in the EAG analysis as a positive control with thio compounds, (E and Z)-1-methylthio-1-propene, 3-methyl-thio-1-propanol, ally methyl sulphide, and carbon dioxide (5%) and mineral oil (negative control). Pure chemicals were diluted in mineral oil to a 10 times v/v stock solution, from which decadal dilutions were made. A 10 μl aliquot of each solution was applied to a filter paper strip (1×3.5 cm; Whatman No. 4, Fisher Scientific) and the solvent was evaporated under a fume hood before inserting the paper strip into 5 ml disposable plastic syringe (Terumo syringes). A 500 ms pulse (5 ml/s) was delivered by stimulus controller CS-55 (Syntech, Germany) to deliver chemical stimulants to a humidified continuous air flow (10 ml/s) over the electrophysiolgical preparation. The chemicals were tested randomly and applied with 0.5-1 min intervals between stimulations.
# (§4) Initial screening was performed using a 10 times dilution (1/10, v/v) source dose solution. Then 1-methylthio-1-propene and 1-octen-3-ol were selected for further dose-response study. A minimum of five mosquitoes were tested for each compound to calculate the average EAG amplitude±standard error (SE).
# [2] = system: Anopheles stephensi antennae; experiment: Electroantennogram (EAG), non bloodfed females
# Experimental: as §1, §2, §3, §4
# [3] = system: Anopheles stephensi maxillary palps; experiment: Electropalpogram (EPG), non bloodfed females; conditions: for EPG response compared to mineral oil control: n=7
# Experimental: as §1, §2, §3, §4
# [4] = system: Anopheles farauti maxillary palps; experiment: Electropalpogram (EPG), non bloodfed females; conditions: chemicals at 1/10 concentrations, CO2 5%; for EPG response compared to mineral oil control: n=6
# C. annulirostis antennae = experiment: Electroantennogram (EAG), non bloodfed females; set-up: species or system Culex annulirostris; conditions: n=5
# Experimental: as §1, §2
# (§5) Thus 1-octen-3-ol was used in the EAG analysis as a positive control with thio compounds, (E and Z)-1-methylthio-1-propene, 3-methyl-thio-1-propanol, ally methyl sulphide, and carbon dioxide (5%) and mineral oil (negative control). […]
# [5] = system: female Anopheles funestus antennae; conditions: cited from earlier work
# [6] = system: female An. gambiae antennae; conditions: cited from earlier work
# Anopheles stephensi [7] = experiment: Y-tube olfactometer, measurement of activation against clean air; assay type: in vivo; conditions: for Concentration of greatest activation response: tested 10^-2 to 10^-5%; for Activation (against clean air): An. stephensi females
# Experimental: A y-tube olfactometer was used to establish whether the volatile components of human breath elicited behavioural responses in the malaria vector Anopheles stephensi. The MR4 strain of An. stephensi (New Delhi, India) was maintained at 27° C., 70% RH, 12:12 L:D and 30 min dawn/dusk periods). 4 to 7 day old female mosquitoes, that had never received a blood meal, were used in experiments. Mosquitoes were maintained on 10% sugar solution ad libitum but starved for 12 hr prior to testing. The Y tube olfactometer is made entirely of glass and consists of a release chamber, the Y tube itself, and a trap chamber attached to each arm (FIG. 1). Each trap chamber is divided in two by a fine glass filter. On the far side of those filters, the trap chambers can connect to charcoal filters or to gas bags or gas cylinders. Air is pulled through the olfactometer by connecting the release chamber to a vacuum tap which vents the contents of the tube. Standard air flow (0.4 L/minute) is maintained using a 0.1-1.2 LPM flow meter (John Morris Pty, LTD). The air volume of the Y-tube is approximately 1 litre and is therefore replaced every 2.5 minutes. One arm is attached to a gas bag of clean air (from a compressed air cylinder) […]. The other arm remains connected to a carbon filter and the air inlet to give a plume of compressed air plus test stimuli (i.e. standard air concentration of CO2 only). 1 μl 10^−2 to 10^−5% test stimuli in mineral oil (Sigma Aldrich) was spotted on 1 cm^2 Whatman filter paper. Test stimuli was delivered by placing treated filter paper between the air inlet and the trap chamber to give a plume of compressed air plus test stimuli (i.e. standard air concentration of CO2 only). All experiments were run under PC2 quarantine conditions, at 27° C., 70% RH, under infrared light. Observers were always in the same position during the tests, at the trap chamber end of the olfactometer, between the 2 arms of the Y tube. Using an aspirator, 25-30 starved female An. stephensi were introduced into the release chamber (FIG. 1). […] After each test, mosquitoes were carefully aspirated from the apparatus by disconnecting constituent parts. The apparatus was flushed with clean air (charcoal filters only) for 5 minutes before the next batch of stimuli was introduced. A total of 10 replicates (different batches of mosquitoes) were run for each stimuli assessment. Treatment and control arms were alternated between replicates. After completion of 10 replicates, the apparatus was rinsed in acetone and allowed to dry overnight. Initial experiments were therefore less concerned with directional responses and more with establishing the range of doses that appeared to cause some form of excitation. Those initial experiments were conducted in comparison to a neutral control (a negative would be repellent) of clean air drawn through a charcoal filter. The test stimuli were tested against mosquitoes at serial dilutions in the range 10^−2 to 10^−5%. Once mosquitoes had stopped responding, the numbers in the olfactometer arms, base leg and release chamber were counted. Mosquitoes were assumed to have been “activated” if they moved into the Y tube arms.
# Anopheles stephensi [8] = experiment: Y-tube olfactometer, measurement of attraction against CO2/1-octen-3-ol positive control; assay type: in vivo; conditions: for Attraction (against CO2 + 1-octen-3-ol): An. stephensi females
# Experimental: Attraction to these components was compared to a standard “positive control” known to elicit a directional response in An. stephensi mosquitoes placed in an olfactometer. The standard used as a positive control is a mix of compressed air, 5% CO2 and an octenol source. Unpaired t-test was used to test for the differences in means for all data sets presented.
# The MR4 strain of An. stephensi (New Delhi, India) was maintained at 27° C., 70% RH, 12:12 L:D and 30 min dawn/dusk periods). 4 to 7 day old female mosquitoes, that had never received a blood meal, were used in experiments. Mosquitoes were maintained on 10% sugar solution ad libitum but starved for 12 hr prior to testing.
# The Y tube olfactometer is made entirely of glass and consists of a release chamber, the Y tube itself, and a trap chamber attached to each arm (FIG. 1). Each trap chamber is divided in two by a fine glass filter. On the far side of those filters, the trap chambers can connect to charcoal filters or to gas bags or gas cylinders. Air is pulled through the olfactometer by connecting the release chamber to a vacuum tap which vents the contents of the tube. Standard air flow (0.4 L/minute) is maintained using a 0.1-1.2 LPM flow meter (John Morris Pty, LTD). The air volume of the Y-tube is approximately 1 litre and is therefore replaced every 2.5 minutes.
# 1 μl 10^−4% 1-octen-3-ol in mineral oil (Sigma Aldrich) was spotted on 1 cm^2 Whatman filter paper.
# 5% CO2 by volume was added to a 10 L FlexFilm gasbag (SKC Inc.) of compressed air.
# When a CO2/1-octen-3-ol mix was required, 5% CO2 was delivered by connecting the gas bag to the requisite Y tube arm and placing the 1-octen-3-ol treated filter paper between the gasbag inlet and the glass filter of the trap chamber.
# All experiments were run under PC2 quarantine conditions, at 27° C., 70% RH, under infrared light. Observers were always in the same position during the tests, at the trap chamber end of the olfactometer, between the 2 arms of the Y tube.
# Using an aspirator, 25-30 starved female An. stephensi were introduced into the release chamber (FIG. 1).
# After each test, mosquitoes were carefully aspirated from the apparatus by disconnecting constituent parts. The apparatus was flushed with clean air (charcoal filters only) for 5 minutes before the next batch of stimuli was introduced.
# A total of 10 replicates (different batches of mosquitoes) were run for each stimuli assessment. Treatment and control arms were alternated between replicates. After completion of 10 replicates, the apparatus was rinsed in acetone and allowed to dry overnight.
# Once the range of doses that “activated” mosquitoes had been established, the capacity of those concentrations to initiate a directional response was tested. In this instance, experiments were conducted in comparison to a positive control of CO2/1-octen-3-ol [[…]]. […] A positive control was used to assess whether test stimuli were at least as attractive as a standard directional stimulus.
# Total mosquito = experiment: Field trial with CDC light traps, total mosquito catch; assay type: in vivo; conditions: CDC light trap, one night, treatment per Table 3
# Experimental: (§6) Field trials based on an imperfect Latin square design compared the attraction of An. farauti to MTPE with and without CO2. Treatments included CO2 alone, CO2 in combination with MTPE lure, or MTPE lure alone. Centres for Disease Control and Prevention (CDC) light traps were used to deliver MTPE lures and/or CO2. MTPE lures consisted of 500 μl of MTPE in mineral oil, 10-100,000 ppm spread on filter paper. MTPE/mineral oil mixtures were spread on filter paper, rolled into a tight wick, and inserted into a specimen tube. Specimen tubes where then wired to a CDC trap. CO2 was delivered using 1 kg dry ice, hung above a CDC light trap, as per standard sampling protocols. MTPE+/−CO2 combinations were randomised between 4 trap positions over three nights. Traps were placed at least 50 m apart to manage interference and were set between 5 pm and 7 am each night. Trap catches were subsequently returned to the laboratory, counted and identified as “Anopheles farauti s.l” or “other”.
# (§7) As CO2 is a known mosquito attractant, all catches were compared to CO2 alone.
# Anopheles farauti s.l = experiment: Field trial with CDC light traps, Anopheles farauti s.l catch; assay type: in vivo; conditions: for Anopheles farauti s.l catch numbers: CDC light trap, one night, treatment per Table 3
# Experimental: as §6, §7
# A. aegypti antennae = experiment: Electroantennogram (EAG), non bloodfed females; set-up: species or system Aedes aegypti; conditions: n=5
# Experimental: as §1, §2, §5
# [9] = chemicals at 1/10 concentrations, CO2 5%
# [10] = dilution 0.00001 (10^-5)% in mineral oil
# [11] = dilution 0.0001 (10^-4)% in mineral oil
# [12] = dilution 0.01 (10^-2)% in mineral oil
# [13] = dilution 0.001 (10^-3)% in mineral oil
smiles,measurement,setting,value
"C=CC(O)CCCCC (stereo not shown) [1-octen-3-ol, reference compound]",EAG response compared to mineral oil control,"[1]; CO2 5%, n=5",significantly responding
same,EAG response compared to mineral oil control,"[2]; chemicals at 1/10 concentrations, CO2 5%, n=6",significantly responded
same,EPG response compared to mineral oil control,[3]; [9],did not
same,EPG response compared to mineral oil control,[4],did not
same,"EAG response, comparison among tested chemicals",C. annulirostis antennae,strongest response
same,EAG response,[5],significant EAG response
same,EAG response,[6],significant EAG response
"C=CCSC [AMS, Allyl methyl sulphide]",Concentration of greatest activation response,Anopheles stephensi [7]; against clean air,0.00001 % v/v
same,Activation (against clean air),Anopheles stephensi [7]; [10],caused activation and Yes
same,Activation (against clean air),Anopheles stephensi [7]; [11],Yes
same,Activation (against clean air),Anopheles stephensi [7]; [12],Yes
same,Attractiveness relative to 1-octen-3-ol/CO2,Anopheles stephensi [8]; at 0.00001%,twice
same,Attraction (against CO2 + 1-octen-3-ol),Anopheles stephensi [8]; dilution 0.00001 (10^-5)%,Yes
same,EPG response compared to mineral oil control,[3]; [9],significant responses
"O=C=O [CO2, carbon dioxide, reference compound]",Total mosquito catch numbers,Total mosquito; CO2 alone (1 kg dry ice),206 and 233 and 298
same,EPG response compared to mineral oil control,[3]; [9],significant responses
same,EPG response compared to mineral oil control,[4],significant responses
"CC=CSC [MTPE, 1-methylthio-1-propene]",Concentration of greatest activation response,Anopheles stephensi [7]; against clean air,0.0001 % v/v
same,Activation compared with that at 0.0001% v/v,Anopheles stephensi [7]; at lower (0.00001%) and higher (0.001-0.01%) concentrations (v/v),reduced
same,Activation (against clean air),Anopheles stephensi [7]; [10],Yes
same,Activation (against clean air),Anopheles stephensi [7]; [11],Yes
same,Activation (against clean air),Anopheles stephensi [7]; [13],Yes
same,Activation (against clean air),Anopheles stephensi [7]; [12],Yes
same,Attractiveness relative to 1-octen-3-ol/CO2,Anopheles stephensi [8]; at 0.0001%,more attractive
same,Attraction (against CO2 + 1-octen-3-ol),Anopheles stephensi [8]; dilution 0.0001 (10^-4)%,Yes
same,"Attractancy in field trial, compared to CO2 alone",Anopheles farauti s.l; 100 ppm,attractive
same,Anopheles farauti s.l catch numbers,Anopheles farauti s.l; 100 ppm MTPE lure alone,28
same,"Attractancy in field trial, effect of CO2","Anopheles farauti s.l; 1,000 ppm MTPE with CO2",CO2 synergises attractancy
same,"Attractancy in field trial, compared to CO2 alone","Anopheles farauti s.l; 10,000 ppm","not attractive, possibly repellent"
same,"Attractancy in field trial, compared to CO2 alone","Anopheles farauti s.l; 100,000 ppm","not attractive, possibly repellent"
same,Anopheles farauti s.l catch numbers,Anopheles farauti s.l; CO2 + 1000 ppm MTPE lure,89 and 78 and 63
same,Dose dependence of attractancy in field trial,"Anopheles farauti s.l; MTPE lures 100-100,000 ppm",Dose dependent attractancy
same,Total mosquito catch numbers,Total mosquito; 100 ppm MTPE lure alone,189
same,Total mosquito catch numbers,Total mosquito; CO2 + 1000 ppm MTPE lure,203 and 264 and 358
same,"EAG response, comparison among tested chemicals",[1],strongest response
same,"EAG response, comparison among tested chemicals",[2]; chemicals at 1/10 concentrations,strongest response
same,"EAG response, dose dependence","[2]; decadal dilutions, n=7",dose dependant
same,"EPG response, comparison among tested chemicals",[3]; [9],strongest response
same,EPG response compared to mineral oil control,[3]; [9],significant responses
same,"EPG response, dose dependence","[3]; decadal dilutions, n=6",dose dependant
same,"EPG response, comparison among tested chemicals",[4],strongest response
"CSCCCO [MTPL, 3-methylthio-1-propanol]",Concentration range over which an activation response was initiated,Anopheles stephensi [7]; against clean air,0.00001-0.01%
same,Activation (against clean air),Anopheles stephensi [7]; [11],Yes
same,Activation (against clean air),Anopheles stephensi [7]; [13],Yes
same,Activation (against clean air),Anopheles stephensi [7]; [12],Yes
same,Attractiveness relative to 1-octen-3-ol/CO2,Anopheles stephensi [8]; at 0.01%,1.5
same,EPG response compared to mineral oil control,[3]; [9],did not
same,"EAG response, comparison among tested chemicals",C. annulirostis antennae,strongest response
same,"EAG response, comparison among tested chemicals",A. aegypti antennae,strongest response
